# Measurements: patent publication US5358951A, “Angiotensin II receptor blocking 2, 3, 6 substituted quinazolinones” (American Cyanamid Company, priority 1993, dated 1994)
# System: vasopressor response of angiotensin II
# Experiment: AII Challenge: antagonism of angiotensin II vasopressor response;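 as to Response Average Change: post-dose Angiotensin II-evoked rise in systolic blood pressure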
# Type: in vivo
# Details: for inhibition in vivo at 1 mg/kg / inhibition in vivo at 3 mg/kg / inhibition in vivo at 5 mg/kg: Rattus norvegicus; for inhibition in vivo at 1 mg/kg / inhibition in vivo at 3 mg/kg: iv; for inhibition in vivo at 5 mg/kg: po
# Text: Conscious Male Okamoto-Aoki SHR, 16-20 weeks old, weighing approximately 330 g are purchased from Charles River Labs (Wilmington, Mass.). Conscious rats are restrained in a supine position with elastic tape. The area at the base of the tail is locally anesthetized by subcutaneous infiltration with 2% procaine. The ventral caudal artery and vein are isolated, and a cannula made of polyethylene (PE) 10-20 tubing (fused together by heat) is passed into the lower abdominal aorta and vena cava, respectively. The cannula is secured, heparinized (1,000 I.U./ml), sealed and the wound is closed. The animals are placed in plastic restraining cages in an upright position. The cannula is attached to a Statham P23 Db pressure transducer, and pulsatile blood pressure is recorded to 10-15 minutes with a Gould Brush recorder. (Chan et al., (Drug Development Res., 18:75-94, 1989). Angiotensin II (human sequence, Sigma Chem. Co., St. Louis, Mo.) of 0.05 and 0.1 ug/kg i.v. is injected into all rats (predosing response). Then a test compound, vehicle or a known angiotensin II antagonist is administered i.v., i.p. or orally to each set of rats. The two doses of angiotensin II are given to each rat again at 30, 60, 90, 120, 180, 240 and 300 minutes post dosing the compound or vehicle. The vasopressor response of angiotensin II is measured for the increase in systolic blood pressure in mmHg. The percentage of antagonism or blockade of the vasopressor response of angiotensin II by a compound is calculated using the vasopressor response (increase in systolic blood pressure) of angiotensin II of each rat predosing the compound as 100%.
smiles,measurement,setting,value
"CCCCc1nc2ccc([C@@]3(c4ccccc4)C[C@@H]4CCCN4O3)cc2c(=O)n1Cc1ccc(-c2ccccc2-c2nnn[nH]2)cc1 (relative stereo) [Example 70, Cis-2-butyl-6-(hexahydro-2-phenylpyrrolo-[1,2-b]isoxazol-2-yl)-3-[[2'-(1H-tetrazol-5-yl)[1,1'-biphenyl]-4-yl]methyl]-4(3H)-quinazolinone]",Response Average Change,"1 mg/kg i.v., AII 0.05 mcg/kg IV, 30 min post dose",23.5 mmHg
same,Response Average Change,"1 mg/kg i.v., AII 0.05 mcg/kg IV, 60 min post dose",12.5 mmHg
same,Response Average Change,"1 mg/kg i.v., AII 0.05 mcg/kg IV, 90 min post dose",12.5 mmHg
same,Response Average Change,"1 mg/kg i.v., AII 0.05 mcg/kg IV, 120 min post dose",20 mmHg
same,Response Average Change,"1 mg/kg i.v., AII 0.05 mcg/kg IV, 180 min post dose",20 mmHg
same,Response Average Change,"1 mg/kg i.v., AII 0.05 mcg/kg IV, 240 min post dose",27.5 mmHg
same,Response Average Change,"1 mg/kg i.v., AII 0.05 mcg/kg IV, 300 min post dose",30 mmHg
same,Response Average Change,"1 mg/kg i.v., AII 0.1 mcg/kg IV, 30 min post dose",30 mmHg
same,Response Average Change,"1 mg/kg i.v., AII 0.1 mcg/kg IV, 60 min post dose",17.5 mmHg
same,Response Average Change,"1 mg/kg i.v., AII 0.1 mcg/kg IV, 90 min post dose",30.5 mmHg
same,Response Average Change,"1 mg/kg i.v., AII 0.1 mcg/kg IV, 120 min post dose",26 mmHg
same,Response Average Change,"1 mg/kg i.v., AII 0.1 mcg/kg IV, 180 min post dose",30 mmHg
same,Response Average Change,"1 mg/kg i.v., AII 0.1 mcg/kg IV, 240 min post dose",30 mmHg
same,Response Average Change,"1 mg/kg i.v., AII 0.1 mcg/kg IV, 300 min post dose",37.5 mmHg
same,inhibition in vivo at 1 mg/kg,"0.5 h, 1 mg/kg i.v., AII 0.05 mcg/kg IV, 30 min post dose",48%
same,inhibition in vivo at 1 mg/kg,"0.5 h, 1 mg/kg i.v., AII 0.1 mcg/kg IV, 30 min post dose",37%
same,inhibition in vivo at 1 mg/kg,"1 h, 1 mg/kg i.v., AII 0.05 mcg/kg IV, 60 min post dose",72%
same,inhibition in vivo at 1 mg/kg,"1 h, 1 mg/kg i.v., AII 0.1 mcg/kg IV, 60 min post dose",63%
same,inhibition in vivo at 1 mg/kg,"2 h, 1 mg/kg i.v., AII 0.05 mcg/kg IV, 120 min post dose",56%
same,inhibition in vivo at 1 mg/kg,"2 h, 1 mg/kg i.v., AII 0.1 mcg/kg IV, 120 min post dose",45%
same,inhibition in vivo at 1 mg/kg,"3 h, 1 mg/kg i.v., AII 0.05 mcg/kg IV, 180 min post dose",56%
same,inhibition in vivo at 1 mg/kg,"3 h, 1 mg/kg i.v., AII 0.1 mcg/kg IV, 180 min post dose",37%
same,inhibition in vivo at 1 mg/kg,"4 h, 1 mg/kg i.v., AII 0.05 mcg/kg IV, 240 min post dose",39%
same,inhibition in vivo at 1 mg/kg,"4 h, 1 mg/kg i.v., AII 0.1 mcg/kg IV, 240 min post dose",37%
same,inhibition in vivo at 1 mg/kg,"5 h, 1 mg/kg i.v., AII 0.05 mcg/kg IV, 300 min post dose",33%
same,inhibition in vivo at 1 mg/kg,"5 h, 1 mg/kg i.v., AII 0.1 mcg/kg IV, 300 min post dose",21%
same,inhibition in vivo at 1 mg/kg,"[…], 1 mg/kg i.v., AII 0.05 mcg/kg IV, 90 min post dose",72%
same,inhibition in vivo at 1 mg/kg,"[…], 1 mg/kg i.v., AII 0.1 mcg/kg IV, 90 min post dose",36%
"CCCCc1nc2ccc([C@@H]3C[C@H]4CCCN4O3)cc2c(=O)n1Cc1ccc(-c2ccccc2-c2nnn[nH]2)cc1 (racemic) [Example 57, Cis-(+/-)-2-Butyl-6-(hexahydropyrrolo[1,2-b]isoxazol-2-yl)-3-[[2'-(1H-tetrazol-5-yl)[1,1'-biphenyl]-4-yl]methyl]-4(3H)-quinazolinone]",Response Average Change,"3 mg/kg I.V., AII 0.05 mcg/kg IV, 30 min post dose",12.5 mmHg
same,Response Average Change,"3 mg/kg I.V., AII 0.05 mcg/kg IV, 60 min post dose",22.5 mmHg
same,Response Average Change,"3 mg/kg I.V., AII 0.05 mcg/kg IV, 90 min post dose",20 mmHg
same,Response Average Change,"3 mg/kg I.V., AII 0.05 mcg/kg IV, 120 min post dose",17.5 mmHg
same,Response Average Change,"3 mg/kg I.V., AII 0.05 mcg/kg IV, 180 min post dose",36 mmHg
same,Response Average Change,"3 mg/kg I.V., AII 0.1 mcg/kg IV, 30 min post dose",7.5 mmHg
same,Response Average Change,"3 mg/kg I.V., AII 0.1 mcg/kg IV, 60 min post dose",15 mmHg
same,Response Average Change,"3 mg/kg I.V., AII 0.1 mcg/kg IV, 90 min post dose",20 mmHg
same,Response Average Change,"3 mg/kg I.V., AII 0.1 mcg/kg IV, 120 min post dose",37.5 mmHg
same,Response Average Change,"3 mg/kg I.V., AII 0.1 mcg/kg IV, 180 min post dose",44 mmHg
same,Response Average Change,"5 mg/kg P.O., AII 0.05 mcg/kg IV, 30 min post dose",31.5 mmHg
same,Response Average Change,"5 mg/kg P.O., AII 0.05 mcg/kg IV, 60 min post dose",25 mmHg
same,Response Average Change,"5 mg/kg P.O., AII 0.05 mcg/kg IV, 90 min post dose",32.5 mmHg
same,Response Average Change,"5 mg/kg P.O., AII 0.05 mcg/kg IV, 120 min post dose",20 mmHg
same,Response Average Change,"5 mg/kg P.O., AII 0.05 mcg/kg IV, 180 min post dose",20 mmHg
same,Response Average Change,"5 mg/kg P.O., AII 0.05 mcg/kg IV, 240 min post dose",20 mmHg
same,Response Average Change,"5 mg/kg P.O., AII 0.05 mcg/kg IV, 300 min post dose",22.5 mmHg
same,Response Average Change,"5 mg/kg P.O., AII 0.1 mcg/kg IV, 30 min post dose",22.5 mmHg
same,Response Average Change,"5 mg/kg P.O., AII 0.1 mcg/kg IV, 60 min post dose",29 mmHg
same,Response Average Change,"5 mg/kg P.O., AII 0.1 mcg/kg IV, 90 min post dose",29.5 mmHg
same,Response Average Change,"5 mg/kg P.O., AII 0.1 mcg/kg IV, 120 min post dose",25 mmHg
same,Response Average Change,"5 mg/kg P.O., AII 0.1 mcg/kg IV, 180 min post dose",41.5 mmHg
same,Response Average Change,"5 mg/kg P.O., AII 0.1 mcg/kg IV, 240 min post dose",40 mmHg
same,Response Average Change,"5 mg/kg P.O., AII 0.1 mcg/kg IV, 300 min post dose",42.5 mmHg
same,inhibition in vivo at 3 mg/kg,"0.5 h, 3 mg/kg I.V., AII 0.05 mcg/kg IV, 30 min post dose",67%
same,inhibition in vivo at 3 mg/kg,"0.5 h, 3 mg/kg I.V., AII 0.1 mcg/kg IV, 30 min post dose",81%
same,inhibition in vivo at 3 mg/kg,"1 h, 3 mg/kg I.V., AII 0.05 mcg/kg IV, 60 min post dose",40%
same,inhibition in vivo at 3 mg/kg,"1 h, 3 mg/kg I.V., AII 0.1 mcg/kg IV, 60 min post dose",63%
same,inhibition in vivo at 3 mg/kg,"2 h, 3 mg/kg I.V., AII 0.05 mcg/kg IV, 120 min post dose",57%
same,inhibition in vivo at 3 mg/kg,"2 h, 3 mg/kg I.V., AII 0.1 mcg/kg IV, 120 min post dose",17%
same,inhibition in vivo at 3 mg/kg,"3 h, 3 mg/kg I.V., AII 0.05 mcg/kg IV, 180 min post dose",11%
same,inhibition in vivo at 3 mg/kg,"3 h, 3 mg/kg I.V., AII 0.1 mcg/kg IV, 180 min post dose",2%
same,inhibition in vivo at 3 mg/kg,"[…], 3 mg/kg I.V., AII 0.05 mcg/kg IV, 90 min post dose",47%
same,inhibition in vivo at 3 mg/kg,"[…], 3 mg/kg I.V., AII 0.1 mcg/kg IV, 90 min post dose",50%
same,inhibition in vivo at 5 mg/kg,"0.5 h, 5 mg/kg P.O., AII 0.05 mcg/kg IV, 30 min post dose",26%
same,inhibition in vivo at 5 mg/kg,"0.5 h, 5 mg/kg P.O., AII 0.1 mcg/kg IV, 30 min post dose",47%
same,inhibition in vivo at 5 mg/kg,"1 h, 5 mg/kg P.O., AII 0.05 mcg/kg IV, 60 min post dose",41%
same,inhibition in vivo at 5 mg/kg,"1 h, 5 mg/kg P.O., AII 0.1 mcg/kg IV, 60 min post dose",32%
same,inhibition in vivo at 5 mg/kg,"2 h, 5 mg/kg P.O., AII 0.05 mcg/kg IV, 120 min post dose",53%
same,inhibition in vivo at 5 mg/kg,"2 h, 5 mg/kg P.O., AII 0.1 mcg/kg IV, 120 min post dose",41%
same,inhibition in vivo at 5 mg/kg,"3 h, 5 mg/kg P.O., AII 0.05 mcg/kg IV, 180 min post dose",53%
same,inhibition in vivo at 5 mg/kg,"3 h, 5 mg/kg P.O., AII 0.1 mcg/kg IV, 180 min post dose",2%
same,inhibition in vivo at 5 mg/kg,"4 h, 5 mg/kg P.O., AII 0.05 mcg/kg IV, 240 min post dose",53%
same,inhibition in vivo at 5 mg/kg,"4 h, 5 mg/kg P.O., AII 0.1 mcg/kg IV, 240 min post dose",6%
same,inhibition in vivo at 5 mg/kg,"5 h, 5 mg/kg P.O., AII 0.05 mcg/kg IV, 300 min post dose",47%
same,inhibition in vivo at 5 mg/kg,"5 h, 5 mg/kg P.O., AII 0.1 mcg/kg IV, 300 min post dose",0%
same,inhibition in vivo at 5 mg/kg,"[…], 5 mg/kg P.O., AII 0.05 mcg/kg IV, 90 min post dose",24%
same,inhibition in vivo at 5 mg/kg,"[…], 5 mg/kg P.O., AII 0.1 mcg/kg IV, 90 min post dose",31%
